Tests used:
[1] = tested on: breast cancer cell line MCF-7; test: IC50 values on breast cancer cell line MCF-7; format: cell-based; conditions: Homo sapiens, MCF7, 72 h, read-out: MCF-7(IC50, nM)
From the text: From the activity evaluation data of the above-mentioned preliminary screen, it can be seen that the series of taxanes derivatives synthesized in the present invention have activity (although the activity of PCMI-43 is weakened). Afterward, most of the compounds are picked up from these derivatives to examine their IC50 values on breast cancer cell line MCF-7. Paclitaxel is used as the positive control drug. Experiments for each compound were independently repeated for three times and multiple holes were used in each experiment. The exposure time of drugs was 72 hours.

[2] = tested on: NCI-H460 non-small cell lung cancer; test: MTT assay, proliferation inhibition; format: cell-based; conditions: Homo sapiens, read-out: Proliferation inhibition rate
From the text: (§1) 1. Cytotoxicity Assay Using Human Tumor Cell Lines
(§2) Paclitaxel was used as the positive drug.

BGC-823 gastric cancer = test: MTT assay, proliferation inhibition; format: cell-based; conditions: Homo sapiens, read-out: Proliferation inhibition rate
From the text: as §1, §2

HL60 leukemia = test: MTT assay, proliferation inhibition; format: cell-based; conditions: Homo sapiens, HL-60, read-out: Proliferation inhibition rate
From the text: as §1, §2

[3] = MTT assay, proliferation inhibition; format: cell-based; conditions: Homo sapiens, LN-18 gastric cancer, read-out: Proliferation inhibition rate
From the text: as §1, §2

MDA-MB-436 breast cancer = test: MTT assay, proliferation inhibition; format: cell-based; conditions: Homo sapiens, read-out: Proliferation inhibition rate
From the text: as §1, §2

DU145 prostate cancer = test: MTT assay, proliferation inhibition; format: cell-based; conditions: Homo sapiens, DU-145, read-out: Proliferation inhibition rate
From the text: as §1, §2

HT29 colon cancer = test: MTT assay, proliferation inhibition; format: cell-based; conditions: Homo sapiens, HT-29, read-out: Proliferation inhibition rate
From the text: as §1, §2

HCT 116 colon cancer = test: MTT assay, proliferation inhibition; format: cell-based; conditions: Homo sapiens, read-out: Proliferation inhibition rate
From the text: as §1, §2

K562 leukemia = test: MTT assay, proliferation inhibition; format: cell-based; conditions: Homo sapiens, read-out: Proliferation inhibition rate
From the text: as §1, §2

[4] = tested on: A549 non-small cell lung cancer; test: MTT assay, proliferation inhibition; format: cell-based; conditions: Homo sapiens, read-out: Proliferation inhibition rate
From the text: as §1, §2

A375 melanoma = test: MTT assay, proliferation inhibition; format: cell-based; conditions: Homo sapiens, A-375, read-out: Proliferation inhibition rate
From the text: as §1, §2

B16 melanoma = test: MTT assay, proliferation inhibition; format: cell-based; conditions: read-out: Proliferation inhibition rate
From the text: as §1, §2

LNCaP prostate cancer = test: MTT assay, proliferation inhibition; format: cell-based; conditions: Homo sapiens, read-out: Proliferation inhibition rate
From the text: as §1, §2

A2780 ovarian cancer = test: MTT assay, proliferation inhibition; format: cell-based; conditions: Homo sapiens, read-out: Proliferation inhibition rate
From the text: as §1, §2

MCF-7 breast cancer = test: MTT assay, proliferation inhibition; format: cell-based; conditions: Homo sapiens, MCF7, read-out: Proliferation inhibition rate
From the text: as §1, §2

HeLa cervical cancer = test: MTT assay, proliferation inhibition; format: cell-based; conditions: Homo sapiens, read-out: Proliferation inhibition rate
From the text: as §1, §2

Caco-2 cell monolayer = Caco-2 cell monolayer membrane transport assay; conditions: for Papp A-B / Papp B-A: bidirectional transport, Table 5
From the text: (§3) Caco-2 Cell Monolayer Membrane Transport Assay
(§4) Human-derived colorectal adenocarcinoma cell line Caco-2 cell monolayer model was used to study the bidirectional transport of the target compounds from the apical (AP) side to the basolateral (BL) side and from BL side to AP side. HPLC was used for quantitative analysis to calculate transport parameters, apparent permeability coefficient (Papp) and the efflux ratio.

[5] = Caco-2 cell monolayer membrane transport assay; conditions: human; for recovery: Caco-2, Recovery rate in mass
From the text: as §3, §4

[6] = Caco-2, Papp A-B, Mean, Caco-2, A-B, mean of two samples
[7] = Caco-2, Papp A-B, Sample-01, Caco-2, A-B, Sample-01
[8] = Caco-2, Papp A-B, Sample-02, Caco-2, A-B, Sample-02
[9] = Mean, Caco-2, A-B, mean of two samples
[10] = Sample-01, Caco-2, A-B, Sample-01
[11] = Sample-02, Caco-2, A-B, Sample-02
[12] = Caco-2, Papp A-B, Caco-2 cell line (21 days), bidirectional transport, Table 5

SMILES	IC50 [1] [nM]	inhibition at 1 µM [2] [%]	inhibition at 1 µM (BGC-823 gastric cancer) [%]	inhibition at 1 µM (HL60 leukemia) [%]	inhibition at 1 µM [3] [%]	inhibition at 1 µM (MDA-MB-436 breast cancer) [%]	inhibition at 1 µM (DU145 prostate cancer) [%]	inhibition at 1 µM (HT29 colon cancer) [%]	inhibition at 1 µM (HCT 116 colon cancer) [%]	inhibition at 1 µM (K562 leukemia) [%]	inhibition at 1 µM [4] [%]	inhibition at 1 µM (B16 melanoma) [%]	inhibition at 1 µM (LNCaP prostate cancer) [%]	inhibition at 1 µM (A2780 ovarian cancer) [%]	inhibition at 1 µM (MCF-7 breast cancer) [%]	inhibition at 1 µM (HeLa cervical cancer) [%]	Papp A→B [5, 7] [×10⁻⁶ cm/s]	Papp A→B [5, 8] [×10⁻⁶ cm/s]	recovery [5, 9] [%]	recovery [5, 10] [%]	further results
CO[C@H]1C[C@H]2OC[C@@]2(OC(C)=O)[C@H]2[C@H](OC(=O)c3ccccc3)[C@]3(O)C[C@H](OC(=O)[C@H](O)[C@@H](NC(=O)OC(C)(C)C)c4ccccc4)C(C)=C([C@@H](OC(=O)N(C)C)C(=O)[C@]12C)C3(C)C [PCMI-22]	1.58 ± 0.04	86.5	92	97.5	95.5	81.1	87.1	87.9	81.1	92.2	69.9	74.7	80.9	96.3	85.7	102	9	8.38	89.4	92.4	inhibition at 1 µM (A375 melanoma): 87.7%; efflux ratio (Caco-2 cell monolayer; Caco-2 cell line (21 days), Papp B-A/Papp A-B): 4.08; Papp A-B (Caco-2 cell monolayer; Caco-2 cell line (21 days)): 8.11 10^−6 cm/s; Papp B-A (Caco-2 cell monolayer; Caco-2 cell line (21 days)): 33.11 10^−6 cm/s; Papp A→B [5, 6]: 8.69 ×10⁻⁶ cm/s; recovery [5, 11]: 86.4%
CO[C@H]1C(=O)[C@]2(C)[C@@H](OC(=O)N(C)C)C[C@H]3OC[C@@]3(OC(C)=O)[C@H]2[C@H](OC(=O)c2ccccc2)[C@]2(O)C[C@H](OC(=O)[C@H](O)[C@@H](NC(=O)c3ccccc3)c3ccccc3)C(C)=C1C2(C)C [PCMI-32]	64.67 ± 0.18	86.6	95.1	97.8	92.2	74.4	87.5	89.8	57.7	91	74.5	77.8	83.4	95.8	102	103	3.16	3.38	81.9	82.1	inhibition at 1 µM (A375 melanoma): 90.4%; recovery [5, 11]: 81.6%
CO[C@H]1C[C@H]2OC[C@@]2(OC(C)=O)[C@H]2[C@H](OC(=O)c3ccccc3)[C@]3(O)C[C@H](OC(=O)[C@H](O)[C@H](CC(C)C)NC(=O)OC(C)(C)C)C(C)=C([C@@H](OC(=O)N(C)C)C(=O)[C@]12C)C3(C)C [PCMI-25]	1.7 ± 0.08	80.7	90.2	97.7	92.5	78.4	82.9	87.3	78.3	90.9	69.5	71.8	80.4	94.8	89.8	101	6.41	9.92	71.2	63.9	inhibition at 1 µM (A375 melanoma): 89%; Papp B-A (Caco-2 cell monolayer; Caco-2 cell line (21 days)): 32.58 10^−6 cm/s; Papp A→B [5, 12]: 8.25 ×10⁻⁶ cm/s; recovery [5, 11]: 78.5%
CO[C@H]1C(=O)[C@]2(C)[C@@H](OC(=O)N(C)C)C[C@H]3OC[C@@]3(OC(C)=O)[C@H]2[C@H](OC(=O)c2ccccc2)[C@]2(O)C[C@H](OC(=O)[C@H](O)[C@H](CC(C)C)NC(=O)OC(C)(C)C)C(C)=C1C2(C)C [PCMI-34]	13.26 ± 0.12	86.2	94.7	98.1	90.6	81.2	86.9	89.2	60.1	92.9	73.5	81.4	88.7	95	101	102	11.8	9.54	67.4	71.2	inhibition at 1 µM (A375 melanoma): 104%; membrane permeability (in words) (Caco-2 cell monolayer; Caco-2 monolayer): highly permeable substrates; Papp B→A ([5]; Caco-2): 30.9 ×10⁻⁶ cm/s; efflux ratio ([5]; Caco-2): 1.59; Papp A→B [5, 12]: 19.4 ×10⁻⁶ cm/s; Papp A→B [5, 6]: 10.7 ×10⁻⁶ cm/s; Papp A→B ([5]; Caco-2, Papp A-to-B, Caco-2): > 10 ×10⁻⁶ cm/s; recovery [5, 11]: 63.6%
CO[C@H]1C(=O)[C@]2(C)[C@@H](OC(=O)N(C)C)C[C@H]3OC[C@@]3(OC(C)=O)[C@H]2[C@H](OC(=O)c2ccccc2)[C@]2(O)C[C@H](OC(=O)[C@H](O)[C@@H](NC(=O)OC(C)(C)C)c3ccccn3)C(C)=C1C2(C)C [PCMI-33]	46.63 ± 0.14	87.8	94.1	97.8	93.2	76.2	86.3	89.1	56	91.1	74.1	81.8	83.6	94.7	83.5	103	4.27	4.54	94.9	95.8	inhibition at 1 µM (A375 melanoma): 90.3%; recovery [5, 11]: 94%
CCSC(=O)O[C@H]1C[C@H]2OC[C@@]2(OC(C)=O)[C@H]2[C@H](OC(=O)c3ccccc3)[C@]3(O)C[C@H](OC(=O)[C@H](O)[C@@H](NC(=O)N(C)C)c4ccccc4)C(C)=C([C@@H](OC)C(=O)[C@]12C)C3(C)C [PCMI-40]	5.49 ± 0.14	87.3	93.3	96.9	93.9	83.6	90	87.2	67.3	92.7	80.2	83.7	87.2	94.2	94.7	99.6	3.78	4.05	74.5	78.2	inhibition at 1 µM (A375 melanoma): 95.2%; Papp B→A ([5]; Caco-2): 37.2 ×10⁻⁶ cm/s; efflux ratio ([5]; Caco-2): 5.36; Papp A→B [5, 12]: 6.92 ×10⁻⁶ cm/s; Papp A→B [5, 6]: 3.92 ×10⁻⁶ cm/s; recovery [5, 11]: 70.7%
COC(=O)O[C@H]1C[C@H]2OC[C@@]2(OC(C)=O)[C@H]2[C@H](OC(=O)c3ccccc3)[C@]3(O)C[C@H](OC(=O)[C@H](O)[C@@H](NC(=O)OC(C)(C)C)c4ccccc4)C(C)=C([C@@H](OC)C(=O)[C@]12C)C3(C)C [PCMI-36]	4.97 ± 0.06	90.3	94.6	97.8	95.9	77.5	88.3	89.7	67.2	94.5	78	81.8	83.8	96.9	107	102	6.66	7.29	88.5	95.5	inhibition at 1 µM (A375 melanoma): 94%; recovery [5, 11]: 81.4%
COC(=O)O[C@H]1C(=O)[C@]2(C)[C@@H](OC)C[C@H]3OC[C@@]3(OC(C)=O)[C@H]2[C@H](OC(=O)c2ccccc2)[C@]2(O)C[C@H](OC(=O)[C@H](O)[C@H](CC(C)C)NC(=O)OC(C)(C)C)C(C)=C1C2(C)C [PCMI-28]	2.9 ± 0.06	85.8	92.2	96.9	97.5	84.3	85.7	89.1	81.1	92.6	72.5	74.1	84	95.6	103	99.7	8.58	9.46	70.8	64.8	Papp A-B (Caco-2 cell monolayer; Caco-2 cell line (21 days)): 8.87 10^−6 cm/s; Papp B-A (Caco-2 cell monolayer; Caco-2 cell line (21 days)): 33.26 10^−6 cm/s; Papp A→B [5, 6]: 9.02 ×10⁻⁶ cm/s; recovery [5, 11]: 76.8%

Source: patent publication US10253007B2, “Taxanes compounds, preparation method therefor, and uses thereof” (Jiangsu Tasly Diyi Pharmaceutical Co., Ltd., priority 2013, dated 2019)
